Data set [1] concerns L929. In words: In vitro L929 cytotoxicity assay (CTG). The note with it: L929 cells; read-out: Cytotox (CTG) CC50. The class given is cell-based. An excerpt:
(§1) Samples from several classes of small molecule compounds including, corticosteroids, glucocorticoids, oxysterols, compounds that impact the HMG coA reductase pathway and compounds that upregulate intracellular cAMP were screened for osteoinductive potential with an alkaline phosphatase (ALP) assay in primary human mesenchymal stem cells (MSCs). Sample compounds were screened over a dose range in a multiwell plate format using DNA to normalize the ALP response as a function of cell number. These dose response curves allowed for the determination of an EC50 to measure relative potency of the osteogenic response between compounds. FIG. 1 is a representative dose response curve for two of the corticosteroid compounds tested, clobetasol propionate and dexamethasone. In addition to the functional analysis, certain identified compounds were run through an in vitro L929 cytotoxicity assay to determine a CC50.

The subject of data set [2] is primary human mesenchymal stem cells (MSCs). Kind of data set: Osteoinductive (OI) alkaline phosphatase (ALP) assay, dose response, ALP normalised to DNA. The class given is cell-based.
Source text: as §1

Data set [3] is described as follows: In vitro L929 cytotoxicity assay (CTG). Type of data set: cell-based. The note with it: mouse, L929 cells; read-out: Cytotox (CTG) CC50.
Source text: as §1

Data set [4] relates to MSCs. Kind of data set: Relative potency: ALP assay after short exposure times, then basal media to assay completion. The note with it: for EC50: Homo sapiens, MSCs, then basal media; for Max Osteogenic Response: time range to reach the full response of the ALP assay control (dexamethasone at 10 nM for 6 days). Type of data set: cell-based, human. As to the method:
One part of this technology may involve coating an osteoconductive scaffold with an osteoinductive small molecule compound to thereby deliver the compound locally when the scaffold is implanted. Consequently, the optimal time and concentration profile required for the compound to remain at the site in order to influence an osteogenic outcome was determined. Initially, potency was determined by looking at exposure over 6 days. In order to better understand the optimal exposure profile, MSCs were treated over a series of dose ranges for exposure times starting at 1 hour out to 4 days, after which the compound treated media was removed and the cells were allowed to continue to assay completion under basal media conditions. This allowed for the determination of the relative potency of the compounds over short exposure periods and gave an indication of the release requirements that would be necessary to achieve the desired osteogenic outcome.
FIG. 2 is a representative relative potency graph of a corticosteroid, fluticasone propionate, based on the results shown in Table 2.

The subject of data set [5] is MSCs. In words: In vitro 3-D efficacy: ALP RNA expression in MSCs seeded on coated Scaffold I. The note with it: compound precoated on Scaffold I, MSCs cultured three days, versus basal conditions. Type of data set: cell-based. As to the method:
The osteoinductive potential of selected small molecule compounds were determined in vitro by seeding MSCs onto a three dimensional b-TCP polymer composite scaffold, Scaffold I, which had been coated with selected compounds prior to seeding. These cells were allowed to culture for a period of time after which they were assayed for alkaline phosphatase (ALP) RNA content, an early marker of osteogenic differentiation. FIG. 7 is a graphical illustration showing the amount of ALP RNA expression in the MSCs, expressed as a fold increase over basal conditions (standard culture conditions). In this example, dexamethasone (a control for the assay) was added to the culture media in solution whereas in all other cases the compounds were precoated on to Scaffold I followed by addition of the MSCs. The cells were then cultured for three days and assayed for their level of osteogenic response via ALP RNA expression.

Where [6] appears, read: primary human MSCs, exposure over 6 days, read-out: OI Assay (ALP) EC50.
Setting [7] is: Homo sapiens, Mesenchymal stem cells, 144 h, primary human MSCs, exposure over 6 days, read-out: OI Assay (ALP) EC50.
Setting [8] is: Homo sapiens, Mesenchymal stem cells, 144 h, MSCs, 6 days exposure, read-out: EC50 6 days.
Setting [9] is: 4 hr exposure, read-out: EC50 4 hr.
Setting [10] is: 72 hr exposure, read-out: EC50 72 hr.
Setting [11] is: 1 hr exposure, read-out: EC50 1 hr.
The mark [12] stands for this setting: 24 hr exposure, read-out: EC50 24 hr.

Broadly, the CC50 is the concentration at which the toxic effect on the cells reaches its halfway point. The EC50 is the concentration giving half of the maximal effect.

Molecules are shown by their SMILES. Where a name gives a salt, the structure may show the parent alone. Read-outs that look alike come from different tables or passages of the source.

For `C=C(CC[C@]12O[C@H](C(=O)O)[C@@](O)(C(=O)O)[C@](C(=O)O)(O1)[C@H](OC(=O)/C=C/[C@@H](C)C[C@@H](C)CC)[C@H]2O)[C@@H](OC(C)=O)[C@H](C)Cc1ccccc1` [Zaragozic Acid A], the CC50 in data set [1] was above 30000 nM. Also, in data set [2] (setting [6]), the EC50 stood at 715 nM.

As to `CC(C)CCC[C@@H](C)[C@H]1CC[C@H]2[C@@H]3CC=C4C[C@@H](O)CC[C@]4(CO)[C@H]3CC[C@]12C` [19-hydroxy-cholesterol], the EC50 in data set [2] (setting [7]) is above 12000 nM.

As for `O=C(O)c1ccc(CCN2CCN(C/C=C/c3ccc(Cl)cc3)CC2)cc1` [bm15766 sulfate], in data set [2] (setting [6]), the EC50 is above 10000 nM.

With `CC(C)CC[C@@H](O)[C@@H](C)[C@H]1CC[C@H]2[C@@H]3CC=C4C[C@@H](O)CC[C@]4(C)[C@H]3CC[C@]12C` [22(r)-hydroxy-cholesterol], in data set [3], the CC50 is above 12000 nM. Further, the EC50 in data set [2] (setting [7]) turned out to be 785 nM.

Turning to `COC(=O)[C@H](CCSC)NC(=O)c1ccc(NC[C@@H](N)CS)cc1-c1ccccc1` [FTI-277 trifluoroacetate salt], the concentration for a half-maximal effect (EC50) in data set [2] (setting [6]) is above 12000 nM.

For `CCCn1cnc2c1c(=O)n(CCCCC(C)=O)c(=O)n2C` [Propentofylline], in data set [2] (setting [7]), the EC50 was above 10000 nM.

`CC(=O)[C@@]1(O)CC[C@H]2[C@@H]3C[C@H](C)C4=CC(=O)C=C[C@]4(C)[C@@]3(F)[C@@H](O)C[C@@]21C` [Fluorometholone]: the CC50 in data set [3] is above 5000 nM. Besides, the EC50 in data set [2] (setting [8]) is 0.319 nM; in data set [2] (setting [7]), 0.319 nM; in data set [4] (setting [9]), 0.464 nM; in data set [4] (setting [10]) it was 0.146 nM. Moreover, the “Max Osteogenic Response” value in data set [4] turned out to be 144 h.

Take `CC1(C)O[C@@H]2C[C@H]3[C@@H]4CCC5=CC(=O)CC[C@]5(C)[C@@]4(F)[C@@H](O)C[C@]3(C)[C@]2(C(=O)CCl)O1` [Halcinonide]: in data set [5], the “ALP RNA expression (osteogenic differentiation of MSCs)” value is “upregulated osteogenic differentiation of MSCs significantly”. Besides, the 50% cytotoxic concentration (CC50) in data set [3] is above 10000 nM. Further, the EC50 is 0.235 nM in data set [2] (setting [8]); 0.235 nM in data set [2] (setting [7]); 2.29 nM in data set [4] (setting [11]); 1.26 nM in data set [4] (setting [12]); 0.115 nM in data set [4] (setting [10]). Besides, the “Max Osteogenic Response” value in data set [4] is 72 h.

Turning to `CC(=O)OCC(=O)[C@@]1(O)CC[C@H]2[C@@H]3CCC4=CC(=O)CC[C@]4(C)[C@@]3(F)[C@@H](O)C[C@@]21C` [Fludrocotisone actetate], the EC50 in data set [2] (setting [6]) was determined as 4.12 nM.

On to `C[C@H](CCCC(C)(C)O)[C@H]1CC[C@H]2[C@@H]3CC=C4C[C@@H](O)CC[C@]4(C)[C@H]3CC[C@]12C` [25-hydroxy-cholestero], for which the EC50 in data set [2] (setting [6]) is above 12000 nM.

Regarding `C[C@]12C=CC(=O)C=C1CC[C@H]1[C@@H]3C[C@@H](O)[C@](O)(C(=O)CO)[C@@]3(C)C[C@H](O)[C@@]12F` [Triamcinolone], in data set [2] (setting [7]), the EC50 worked out at 4.13 nM.

As for `CCCC1O[C@@H]2C[C@H]3[C@@H]4CCC5=CC(=O)C=C[C@]5(C)[C@H]4[C@@H](O)C[C@]3(C)[C@]2(C(=O)CO)O1` (some centres unmarked) [Budesonide], the CC50 in data set [3] was above 30000 nM. Moreover, the EC50 is 0.296 nM in data set [2] (setting [8]); 0.296 nM in data set [2] (setting [7]); 47.9 nM in data set [4] (setting [11]); 5.47 nM in data set [4] (setting [9]); 4.48 nM in data set [4] (setting [12]); 0.0533 nM in data set [4] (setting [10]). Further, in data set [4], the “Max Osteogenic Response” value was found to be 72 h.

In the case of `CCN(CC)CCOc1ccc(C(O)(Cc2ccc(Cl)cc2)c2ccc(C)cc2)cc1` (centres unmarked) [Triparanol], in data set [2] (setting [7]), the concentration for a half-maximal effect (EC50) is above 10000 nM.

Turning to `OCCN(CCO)c1nc(N2CCCCC2)c2nc(N(CCO)CCO)nc(N3CCCCC3)c2n1` [Dipyridamole], the half-maximal cytotoxic concentration (CC50) in data set [3] was above 30000 nM.

As for `O=CN(O)CCCP(=O)(O)O` [Fosmidomycin], the EC50 in data set [2] (setting [7]) is above 10000 nM.

For `CC(C)CC[C@H](O)[C@@H](C)[C@H]1CC[C@H]2[C@@H]3CC=C4C[C@@H](O)CC[C@]4(C)[C@H]3CC[C@]12C` [22(S)-hydroxy-cholesterol], the EC50 in data set [2] (setting [7]) is above 12000 nM.

Consider `CC1(C)O[C@@H]2C[C@H]3[C@@H]4C[C@H](F)C5=CC(=O)CC[C@]5(C)[C@H]4[C@@H](O)C[C@]3(C)[C@]2(C(=O)CO)O1` [Flurandrenolide], for which the EC50 in data set [2] (setting [7]) turned out to be 1.56 nM.

Take `C[C@H]1C[C@H]2[C@@H]3CCC4=CC(=O)C=C[C@]4(C)[C@@]3(F)[C@@H](O)C[C@]2(C)[C@@]1(O)C(=O)CO` [Betamethasone]: the concentration for a half-maximal effect (EC50) in data set [2] (setting [7]) stood at 1.96 nM.

For `COC(=O)[C@H](CC(C)C)NC(=O)c1ccc(NC[C@@H](N)CS)cc1-c1ccccc1` [GGTI-286], the EC50 in data set [2] (setting [6]) was above 12000 nM.

`CCCC(=O)Nc1ncnc2c1ncn2[C@@H]1O[C@@H]2COP(=O)(O)O[C@H]2[C@H]1OC(=O)CCC` [dbcAMP]: in data set [2] (setting [6]), the EC50 was above 10000 nM.

For `C[C@@H]1C[C@H]2[C@@H]3CCC4=CC(=O)C=C[C@]4(C)[C@@]3(F)[C@@H](O)C[C@]2(C)[C@@]1(O)C(=O)CO` [Dexamethasone], the cytotoxic concentration (CC50) in data set [3] was above 50000 nM. Further, the 50% effective concentration (EC50) in data set [2] (setting [8]) was 0.95 nM; in data set [2] (setting [7]), 0.95 nM; in data set [4] (setting [9]) it was 0.787 nM; in data set [4] (setting [10]), 0.277 nM.

Turning to `CC(=O)OCC(=O)[C@@]1(OC(C)=O)[C@@H](C)C[C@H]2[C@@H]3C[C@H](F)C4=CC(=O)C=C[C@]4(C)[C@@]3(F)[C@@H](O)C[C@@]21C` [Diflorasone Diacetate], the concentration for a half-maximal effect (EC50) in data set [2] (setting [7]) was 1.38 nM.

For the compound `CC(=O)CCCCn1c(=O)c2c(ncn2C)n(C)c1=O` [Pentoxifylline (Trental), Pentoxifylline], the EC50 in data set [2] (setting [7]) is above 10000 nM.

With `C[C@]12CCC(=O)C=C1CC[C@@H]1[C@@H]2[C@@H](O)C[C@]2(C=O)[C@@H](C(=O)CO)CC[C@@H]12` [Aldosterone 98%, Aldosterone], the EC50 in data set [2] (setting [7]) amounted to 287 nM.

For `CC[C@H](CC[C@@H](C)[C@H]1CC[C@H]2[C@@H]3CC=C4C[C@@H](O)CC[C@]4(C)[C@H]3CC[C@]12C)C(C)C` [β-Sitosterol], in data set [2] (setting [6]), the concentration giving a half-maximal response (EC50) is above 12000 nM.

For the compound `CC(C)Cn1c(=O)n(C)c(=O)c2[nH]cnc21` [3-isobutyl 1-methylxanthine (IBMX), 3-isobutyl 1-methylxanthine], the EC50 in data set [2] (setting [7]) was above 10000 nM.

Consider `CCC(=O)O[C@]1(C(=O)CCl)[C@@H](C)C[C@H]2[C@@H]3CCC4=CC(=O)C=C[C@]4(C)[C@@]3(F)[C@@H](O)C[C@@]21C` [Clobetasol propionate], for which the “ALP RNA expression (osteogenic differentiation of MSCs)” value in data set [5] was “upregulated osteogenic differentiation of MSCs significantly”. Also, in data set [3], the CC50 was above 30000 nM. The EC50 in data set [2] (setting [8]) was 0.012 nM; in data set [2] (setting [7]) it was 0.012 nM; in data set [4] (setting [11]), 0.0605 nM; in data set [4] (setting [9]), 0.019 nM; in data set [4] (setting [12]), 0.0804 nM; in data set [4] (setting [10]) it was 0.00371 nM. The “Max Osteogenic Response” value in data set [4] stood at 72 h.

For `CC(=O)OCC(=O)[C@@]12N=C(C)O[C@@H]1C[C@H]1[C@@H]3CCC4=CC(=O)C=C[C@]4(C)[C@H]3[C@@H](O)C[C@@]12C` [Deflazacort], the concentration for a half-maximal effect (EC50) in data set [2] (setting [7]) came out at 9.85 nM.

For the compound `O=C1C=C2C(=CCOC2O)O1` (centres unmarked) [Patulin], the concentration for a half-maximal effect (EC50) in data set [2] (Mesenchymal stem cells, 144 h, primary human MSCs, exposure over 6 days, read-out: OI Assay (ALP) EC50) was above 10000 nM.

For the origin of these results see patent US8642065B2, “Osteogenic promoting implants and methods of inducing bone growth” (DePuy Synthes Products, LLC, priority 2011, dated 2014).
